Experimental data from PubChem BioAssay AID2060357 (Molecular Pharmacology Branch, DTP, NCI, 2025).

System: 292921-168-R-J2-PDC spheroids with HUVEC/MSC, viability
Experiment: Anticancer human tumor 292921-168-R-J2-PDC patient-derived pancreatic carcinoma cell line growth inhibition [TAK]
Conditions: for IC50: curve of first compound; for viability, T/C: stronger effect = lower value
Text: Combinatorial screen of targeted agents with TAK-243 and ipatasertib in multi-cell type tumor spheroids
A high-throughput screen of multi-cell type tumor spheroids was designed to identify active combinations of targeted small molecules and TAK-243 or ipatasertib. Complex spheroids include a stromal component modeled by human endothelial cells (HUVEC) and fibroblasts modeled by human mesenchymal stem cells (MSCs). The concentration ranges selected for each drug and investigational agent were based upon clinically achievable concentrations if the clinical Cmax of the agent was known.
Compounds. The drugs and investigational agents: TAK-243 (785004), ipatasertib (767898), everolimus (733504), selumetinib (741078), bortezomib (756655), trametinib (758246), ixazomib (758254), vemurafenib (761431), dabrafenib (764134), sapanisertib (764658), alpelisib (765974), and copanlisib (816437), were obtained from the National Cancer Institute (NCI) Developmental Therapeutics Program Chemical Repository. The FDA-approved anticancer drug set is available from the NCI Developmental Therapeutics Program. […] The stock solutions were prepared in dimethyl sulfoxide (DMSO, Sigma-Aldrich, St. Louis, MO, cat. D2650) at 800-fold the tested concentration and stored at -70 degrees C prior to their use. All drugs and investigational agents were tested over a range starting from a high concentration at or near the clinical Cmax and decreasing in half-log increments. If the clinical Cmax for an agent had not been determined, the highest concentration tested was 10 microM.
NCI60 Cell Culture. NCI60 cell lines were obtained from the NCI Developmental Therapeutics Program Tumor Repository. For each lot of cells, the Repository performed Applied Biosystems AmpFLSTR Identifiler testing with PCR amplification to confirm consistency with the published Identifier STR profile for each cell line. Cells were kept in continuous culture for no more than 20 passages. The optimal seeding densities for each of the cell lines at each time point assessed were determined prior to performing the concentration response studies. Briefly, the NCI60 human tumor lines were grown as monolayers in RPMI 1640 medium supplemented with 10% FBS and 2 mmol/L L-glutamine.
An additional 2 lines were from the NCI60 cell line panel including melanomas, MALME-3M and SK-MEL-2. Pooled donor human umbilical vein endothelial cells (HUVEC, Lonza, cat. CC-2519) and human mesenchymal stem cells (hMSC, Lonza, cat. PT-2501) were purchased from Lonza (Walkersville, MD).
PDMR cell lines were grown in complete medium (DC medium): Dulbecco's modified Eagle's medium (DMEM)/F12 supplemented with 5% fetal bovine serum (FBS), 2 mM L-glutamine, 100 U/mL penicillin and 100 µg/ml streptomycin, 0.4 µg/ml hydrocortisone, 10 ng/ml epidermal growth factor (EGF) recombinant human protein, 24 µg/mL adenine, and 0.1 mg/mL primocin. During culture from frozen stock vials, PDMR cells were cultured in the same medium containing 10 µM Y-27632 (see Table 3). The PDCs were cultured in complete DMEM/F12 media without 10 microM Y-27632 dihydrochloride for at least two passages prior to the screen. The pooled donor HUVEC and hMSC were cultured in endothelial cell growth medium 2 (PromoCell, Heidelberg, Germany, cat. C-22011) and mesenchymal stem cell growth medium 2 (PromoCell, cat. C-28009), respectively. For all experiments, HUVEC and hMSC were used at passages </=5.
For the pre-screen, cell seeding densities were determined from a titration spanning the range from 5,000 to 313 cells per well. The mct-spheroids including 60% malignant cells, 25% HUVEC and 15% MSC dispensed as a mixture into U-bottom Ultra-Low Attachment 384-well plates (Corning, NY)
High-throughput Drug Combination Screening.
Prior to their inoculation into 384-well plates, malignant cells, HUVEC, and hMSC were removed from T flasks using TrypLE express (Thermo Fisher Scientific, cat. 12605036) and harvested by centrifugation for 5 min at 233 x g. […]
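Further: spheroids exposed to drugs for seven days before readout.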

SMILES: COC1CC2CCC(C)C(O)(O2)C(=O)C(=O)N2CCCCC2C(=O)OC(C(C)CC2CCC(OCCO)C(OC)C2)CC(=O)C(C)C=C(C)C(O)C(OC)C(=O)C(C)CC(C)C=CC=CC=C1C (stereo not given) + CC(C)NCC(C(=O)N1CCN(c2ncnc3c2C(C)CC3O)CC1)c1ccc(Cl)cc1
- IC50 (second compound 0.3 µM): 5.01 nM
- IC50 (second compound 0.949 µM): 4.77 nM
- IC50 (second compound 3 µM): 1.41 nM
- IC50 (second compound 9.49 µM): < 0.316 nM
- IC50 (second compound 30 µM): < 0.316 nM
- viability, T/C (second compound 0.3 µM, first compound 0.000316 µM): 64.3%
- viability, T/C (second compound 0.3 µM, first compound 0.001 µM): 56.9%
- viability, T/C (second compound 0.3 µM, first compound 0.00316 µM): 49.4%
- viability, T/C (second compound 0.3 µM, first compound 0.01 µM): 50.6%
- viability, T/C (second compound 0.3 µM, first compound 0.0316 µM): 45.3%
- viability, T/C (second compound 0.3 µM, first compound 0.1 µM): 46.1%
- viability, T/C (second compound 0.949 µM, first compound 0.000316 µM): 65.7%
- viability, T/C (second compound 0.949 µM, first compound 0.001 µM): 59.9%
- viability, T/C (second compound 0.949 µM, first compound 0.00316 µM): 50.2%
- viability, T/C (second compound 0.949 µM, first compound 0.01 µM): 46.6%
- viability, T/C (second compound 0.949 µM, first compound 0.0316 µM): 44.9%
- viability, T/C (second compound 0.949 µM, first compound 0.1 µM): 45.2%
- viability, T/C (second compound 3 µM, first compound 0.000316 µM): 60%
- viability, T/C (second compound 3 µM, first compound 0.001 µM): 53.3%
- viability, T/C (second compound 3 µM, first compound 0.00316 µM): 45.1%
- viability, T/C (second compound 3 µM, first compound 0.01 µM): 42.4%
- viability, T/C (second compound 3 µM, first compound 0.0316 µM): 43.8%
- viability, T/C (second compound 3 µM, first compound 0.1 µM): 41.6%
- viability, T/C (second compound 9.49 µM, first compound 0.000316 µM): 47.9%
- viability, T/C (second compound 9.49 µM, first compound 0.001 µM): 39.8%
- viability, T/C (second compound 9.49 µM, first compound 0.00316 µM): 35.7%
- viability, T/C (second compound 9.49 µM, first compound 0.01 µM): 33.2%
- viability, T/C (second compound 9.49 µM, first compound 0.0316 µM): 32.7%
- viability, T/C (second compound 9.49 µM, first compound 0.1 µM): 32.9%
- viability, T/C (second compound 30 µM, first compound 0.000316 µM): 33.4%
- viability, T/C (second compound 30 µM, first compound 0.001 µM): 30.6%
- viability, T/C (second compound 30 µM, first compound 0.00316 µM): 29%
- viability, T/C (second compound 30 µM, first compound 0.01 µM): 26.3%
- viability, T/C (second compound 30 µM, first compound 0.0316 µM): 26.2%
- viability, T/C (second compound 30 µM, first compound 0.1 µM): 24.3%

SMILES: Cn1cnc2c(F)c(Nc3ccc(Br)cc3Cl)c(C(=O)NOCCO)cc21 + CC(C)NCC(C(=O)N1CCN(c2ncnc3c2C(C)CC3O)CC1)c1ccc(Cl)cc1
- IC50 (second compound 0.3 µM): < 9.49 nM
- IC50 (second compound 0.949 µM): < 9.49 nM
- IC50 (second compound 3 µM): < 9.49 nM
- IC50 (second compound 9.49 µM): < 9.49 nM
- IC50 (second compound 30 µM): < 9.49 nM
- viability, T/C (second compound 0.3 µM, first compound 0.00949 µM): 49.9%
- viability, T/C (second compound 0.3 µM, first compound 0.03 µM): 36.5%
- viability, T/C (second compound 0.3 µM, first compound 0.0949 µM): 30.9%
- viability, T/C (second compound 0.3 µM, first compound 0.3 µM): 26.8%
- viability, T/C (second compound 0.3 µM, first compound 0.949 µM): 21.4%
- viability, T/C (second compound 0.3 µM, first compound 3 µM): 13.1%
- viability, T/C (second compound 0.949 µM, first compound 0.00949 µM): 45.3%
- viability, T/C (second compound 0.949 µM, first compound 0.03 µM): 34.7%
- viability, T/C (second compound 0.949 µM, first compound 0.0949 µM): 30.9%
- viability, T/C (second compound 0.949 µM, first compound 0.3 µM): 28.1%
- viability, T/C (second compound 0.949 µM, first compound 0.949 µM): 21.5%
- viability, T/C (second compound 0.949 µM, first compound 3 µM): 13%
- viability, T/C (second compound 3 µM, first compound 0.00949 µM): 39.5%
- viability, T/C (second compound 3 µM, first compound 0.03 µM): 30.3%
- viability, T/C (second compound 3 µM, first compound 0.0949 µM): 27.6%
- viability, T/C (second compound 3 µM, first compound 0.3 µM): 24.1%
- viability, T/C (second compound 3 µM, first compound 0.949 µM): 17.3%
- viability, T/C (second compound 3 µM, first compound 3 µM): 11.8%
- viability, T/C (second compound 9.49 µM, first compound 0.00949 µM): 32.2%
- viability, T/C (second compound 9.49 µM, first compound 0.03 µM): 24.5%
- viability, T/C (second compound 9.49 µM, first compound 0.0949 µM): 22.6%
- viability, T/C (second compound 9.49 µM, first compound 0.3 µM): 20.6%
- viability, T/C (second compound 9.49 µM, first compound 0.949 µM): 15.6%
- viability, T/C (second compound 9.49 µM, first compound 3 µM): 10.9%
- viability, T/C (second compound 30 µM, first compound 0.00949 µM): 25.3%
- viability, T/C (second compound 30 µM, first compound 0.03 µM): 21.2%
- viability, T/C (second compound 30 µM, first compound 0.0949 µM): 18.4%
- viability, T/C (second compound 30 µM, first compound 0.3 µM): 17.5%
- viability, T/C (second compound 30 µM, first compound 0.949 µM): 13.8%
- viability, T/C (second compound 30 µM, first compound 3 µM): 8.92%
